Source: patent US10369195B2, “Methods and compositions for preventing and treating damage to the heart” (MandalMed, Inc., priority 2016, dated 2019)

Experiments:
[1] = system: rat ischemia-reperfusion model of MI; assay: Intraventricular (LV) pressure / hemodynamic measurements after ischemia-reperfusion MI; type: in vivo; details: 8 weeks post-MI; Gal-3C 600 μg/day days 4-10; losartan 8 mg/kg/day in drinking water 56 days; 15/group
Method: (§1) Pre-filled and primed mini-osmotic pumps were implanted a few minutes before surgical induction of MI and Gal-3C treatment continued for 7 days (denoted as “early window”) as in the pilot study described above. The effect of treatment on cardiac function was evaluated by serial echocardiography on day 0 pre-MI, 2 and 28 days post-MI, and LV pressure measurement at 28 days. For the early window, groups consisted of sham surgery with PBS, sham with 600 μg/day Gal-3C, MI with PBS, MI with 200 μg/day Gal-3C, and MI with 600 μg/day Gal-3C.
Serial echocardiography was performed at 2, 28, and 56 days (8 weeks) post-MI and terminal intraventricular pressure catheter measurements were obtained. The effect on cardiac function from losartan was compared to the effect of Gal-3C that included data from the 12 animals in the Gal-3C and the 12 animals in the vehicle-only group that were presented in FIG. 9 and FIG. 10. […] The results described herein indicate that treatment with Gal-3C post-MI would be more beneficial on recovery and preservation of heart function compared to treatment with losartan or another ARB alone.

[2] = system: rat ischemia-reperfusion model of MI; assay: Serial echocardiography (ejection fraction, ESV, EDV) after ischemia-reperfusion MI; type: in vivo; details: out to 8 weeks post-MI; Gal-3C 600 μg/day days 4-10; losartan 8 mg/kg/day in drinking water 56 days; 15/group
Method: Animal experiments to test the therapeutic potential of Gal-3C in the preservation of post-MI cardiac function were performed using surgical induction of MI in rodents and functional evaluation of treatment as previously described (61-66). To most accurately model cardiac damage experienced by MI patients, a well-established ischemia-reperfusion procedure was used in which the left anterior descending coronary artery (LAD) of rats was occluded for 25 min followed by restoration of blood flow (67). This standard MI model is more clinically relevant than permanent LAD ligation models because the reperfusion experienced after post-MI angioplasty not only limits the size of the infarct, but paradoxically introduces free radical damage, and is well validated as a model for post-MI heart failure experimental therapies (68).
Experiments were performed according to the UCSF guidelines for rodent survival surgery and the Guide for the Care and Use of Laboratory Animals of the US National Institutes of Health. Male Sprague-Dawley rats (age 10-12 weeks) were anesthetized with isoflurane (2%), received analgesics (buprenorphine (0.1 mg/kg), subcutaneous injection) pre- and post-operation, and underwent ischemia-reperfusion MI involving temporary (25 minutes) occlusion of the left anterior descending coronary artery (LAD) to produce regional moderate myocardial ischemia.
Briefly, rats were ventilated to a small animal volume-controlled ventilator (Harvard Rodent Ventilator, Model 683, South Natick, Mass.), and the heart was exposed via thoracotomy. Occlusion proceeds with a 7-0 nonabsorbable surgical suture passed under the LAD 2-3 mm from tip of the normally positioned left auricle and tied around a 1-mm section of PE-50 tubing, tightening with an artery clamp to temporarily occlude the LAD. After occlusion for 25 minutes, reperfusion was allowed to the formerly ischemic bed. The chest was then closed with removal of excess fluid and air from the chest cavity. All animals were monitored post-operation until they became ambulatory. The mortality during MI procedure was 12%.
The highest dose, 600 μg/rat/day, and the lowest dose, 200 μg/rat/day, were chosen for continued study, representing approximately 2- and 5.5-fold higher doses based on body surface area of rats than was used in the multiple myeloma study of Gal-3C in mice (70). Groups of rats (n=10) were treated with low (200 μg/day) and high (600 μg/day doses of Gal-3C or with PBS-lactose (vehicle control) administered over 0-6 days post-MI (“early window”; primed pumps were implanted several minutes before the MI procedure on day 0). These groups were designed to be sufficiently powered to detect potentially statistically significant improvement from Gal-3C treatment.
as §1
In a subsequent experiment, the high dose Gal-3C and the PBS control were administered by Alzet pump over a delayed delivery window of from 4 days until 10 days post-MI (denoted as “delayed window”) to rats that had been subjected to the same ischemia-reperfusion procedure as described in Example 2 above. Delayed treatment might better enable fibrotic repair of the infarct while preventing wall rupture. […]

CCCCc1nc(Cl)c(CO)n1Cc1ccc(-c2ccccc2-c2nn[nH]n2)cc1 [losartan, reference compound]
no significant benefit: LVEDP, benefit relative to PBS [1] | LVSP, benefit relative to PBS [1] | mean ABP, benefit relative to PBS [1] | EF, benefit relative to PBS [2]
